The text below walks through data of patent US9134300B2, “Method for screening a drug in retinal tissue” (Research Foundation of the City University of New York, priority 2011, dated 2015).

This experiment concerns microtubules. The experiment in a line: Time-lapse second-harmonic generation imaging of retinal nerve fibers following treatment with nocodazole. Also on record: species or system rat. Conditions: retinal nerve fiber layer of retinal flat-mount; perfusion with medium containing nocodazole and 0.4% DMSO; treatment period 90 minutes.

Description: Rat retinal flat-mounts were prepared from euthanized rats. The eyes were enucleated. A circumferential incision was made around the limbus and the cornea, lens, and vitreous humor were removed. Several radial cuts were made in the eye cup. The retina was isolated from the retinal pigment epithelium and the sclera and transferred to buffered Ames' medium (Sigma-Aldrich), which was bubbled with 95% oxygen and 5% carbon dioxide, and maintained at 34° C. and pH 7.4. The sample was transferred to a perfusion chamber with a transparent bottom (Warner Instruments) within 15 minutes after euthanasia. The retina was placed on the microscope stage with the retinal nerve fiber layer side up. The speed of laminar flow was approximate 1 mL per min.
Imaging: Simultaneous second-harmonic generation microscopy and two-photon excitation fluorescence microscopy were performed to image the fresh retina. The excitation wavelength utilized short pulses from a mode-locked Ti: Sapphire laser source with a duration of 100 fs at 80-MHz repetition rate. The excitation wavelength was 785 nm, except for the experiments where two excitation wavelengths at 785 and 880 nm are compared. […]
Fluorescence was detected in the backward beam path, which included a set of spectral filters (Chroma Technology), and photomultiplier tube (PMT) detectors (Hamamatsu). […]

With `COC(=O)Nc1nc2ccc(C(=O)c3cccs3)cc2[nH]1` [nocodazole], the “intensity of microtubule second-harmonic generation signal” value was “significantly reduced”.
